# Key:
# live VSV and NiV-pVSV = format: cell-based
# RVFV MP-12 = format: cell-based, Rift Valley fever virus
# HIV-1 (JRCSF) = format: cell-based
# [1] = test system: NiV envelope mediated cell-cell fusion; format: cell-based
# Omsk = experiment: organism not typed; format: cell-based, Omsk Hemorrhagic Fever, Guriev; settings: read-out: Activity
# HIV-1 = experiment: microbe, parasite or virus in culture; format: cell-based; settings: Human immunodeficiency virus 1, read-out: Activity
# Murine Leukemia = experiment: cells; format: cell-based, F57; settings: Mus musculus, read-out: Activity
# Marburg = experiment: organism not typed; format: cell-based, Musoke/Ravn; settings: read-out: Activity
# VSV-G pseudotyped VSV = format: cell-based, Vesicular Stomatitis virus
# Ebola = experiment: microbe, parasite or virus in culture; format: cell-based; settings: Zaire ebolavirus, read-out: Activity
# Yellow Fever = experiment: organism not typed; format: cell-based, Asibi; settings: read-out: Activity
# LaCrosse = experiment: organism not typed; format: cell-based; settings: read-out: Activity
# Junín = experiment: organism not typed; format: cell-based; settings: read-out: Activity
# Coxsackie B = experiment: organism not typed; format: cell-based; settings: read-out: Activity
# in vivo = settings: male, Sprague-Dawley, rat, ip
# NiV VLPs = format: cell-based, Nipah virus
# NDV = format: cell-based, Newcastle Disease, rNDV/F3aa-GFP
# Vero cells [2] = test system: Vero cells
# [3] = mouse, in vivo
# [4] = test system: Vero cells infected with pVSV; format: cell-based
# [5] = test system: NiV-pseudotyped pVSV binding to ephrinB2; format: cell-based
# Cowpox = experiment: organism not typed; format: cell-based, Brighton; settings: read-out: Activity
# HPIV-3 = experiment: microbe, parasite or virus in culture; format: cell-based; settings: Human respirovirus 3, read-out: Activity
# VSV transcription = format: biochemical, VSV-Indiana
# RSSE = experiment: organism not typed; format: cell-based, Russian Spring Summer Encephalitis, Sofiin; settings: read-out: Activity
# NiV-pVSV [6] = experiment: microbe, parasite or virus in culture; format: cell-based, Nipah virus envelope pseudotyped onto VSV
# Vesicular = experiment: microbe, parasite or virus in culture; format: cell-based, Vesicular Stomatitis, Indiana
# [7] = male, Sprague-Dawley, rat, in vivo
# Vero cells [8] = format: cell-based
# Reovirus = experiment: microbe, parasite or virus in culture; format: cell-based; settings: Reovirus sp., read-out: Activity
# Adenovirus = experiment: microbe, parasite or virus in culture; format: cell-based; settings: unidentified adenovirus, read-out: Activity
# Nipah = experiment: organism not typed; format: cell-based, Malaysia
# Influenza A = experiment: microbe, parasite or virus in culture; format: cell-based, WSN H1N1; settings: read-out: Activity
# Hepatitis C Virus = experiment: microbe, parasite or virus in culture; format: cell-based; settings: read-out: Activity
# pVSV = format: cell-based
# PIV-5 = experiment: organism not typed; format: cell-based; settings: read-out: Activity
# Rift Valley Fever = experiment: organism not typed; format: cell-based; settings: read-out: Activity
# NiV-pVSV [9] = format: cell-based
# West Nile Virus = experiment: microbe, parasite or virus in culture; format: cell-based; settings: read-out: Activity
# Vero cells [10] = test system: Vero cells; remark: listed apart in the source
# Vaccinia = experiment: microbe, parasite or virus in culture; format: cell-based, VTF1.1; settings: Orthopoxvirus vaccinia, read-out: Activity
smiles,measurement,setting,value
"C=CCN1C(=O)/C(=C/c2ccc(-c3ccccc3)o2)SC1=S [LJ-001, (Z)-3-Allyl-5-(5-phenyl-2-furyl)methylene-4-oxothiazolidine-2-thione]",infectivity of treated virus after 4 h PBS wash and secondary repurification,live VSV and NiV-pVSV,remained non-infectious
same,infectivity of treated virus after washing and repurification,live VSV and NiV-pVSV,non-infectious
same,infectivity of gradient fractions,RVFV MP-12,completely non-infectious
same,reduction in infectivity,RVFV MP-12,≥ 5 log
same,sensitivity of passaged virus to compound,HIV-1 (JRCSF),no evidence of decreased sensitivity
same,NiV envelope mediated cell-cell fusion,[1],did not inhibit
same,IC50,Omsk,500 to 1000 nM
same,IC50,HIV-1,500 to 1000 nM
same,IC50,Murine Leukemia,500 to 1000 nM
same,IC50,Marburg,500 to 1000 nM
same,reporter virus entry via Vesicular Stomatitis virus envelope proteins (VSV-G),VSV-G pseudotyped VSV,inhibited reporter virus entry
same,IC50,Ebola,500 to 1000 nM
same,IC50,Yellow Fever,< 500 nM
same,IC50,LaCrosse,< 500 nM
same,IC50,Junín,500 to 1000 nM
same,IC50,Coxsackie B,> 10000 nM
same,half-life,in vivo,~4 h
same,cytoplasmic delivery of beta-lactamase matrix fusion protein,NiV VLPs,inhibited cytoplasmic delivery
same,IC50,NDV,500 to 1000 nM
same,active cell metabolism (Alamar Blue uptake),Vero cells [2],no effect on active cell metabolism
same,complete blood counts with differential,[3],no difference relative to the vehicle control group
same,hematocrit and hemoglobin levels,[3],normal
same,"liver function tests, kidney function tests, serum electrolytes",[3],all normal and equivalent to the vehicle control mice
same,serum cholesterol levels,[3],statistically significant elevation
same,"serum metabolites (glucose, phosphate, triglycerides)",[3],normal
same,weight loss,[3],< 10%
same,inhibitory effect after washing pre-treated target cells,[4],Washing the cells reversed the inhibitory effect
same,virus-cell binding,[5],still bound cognate cell surface receptors
same,IC50,Cowpox,1000 to 5000 nM
same,IC50,HPIV-3,500 to 1000 nM
same,"viral transcription, mRNA production, and mRNA capping of VSV",VSV transcription,unaffected
same,IC50,RSSE,500 to 1000 nM
same,effect of pre-treatment temperature and duration on antiviral activity,NiV-pVSV [6],no significant effect
same,reporter virus entry via Nipah virus envelope (NiV-F/G),NiV-pVSV [6],inhibited reporter virus entry
same,IC50,"NiV-pVSV [6]; Vesicular stomatitis virus, Vero, read-out: in vitro IC50 concentrations",~1000 nM
same,infection and infectious spread of live VSV,Vesicular,inhibit infection and infectious spread
same,IC50,"Vesicular; Vesicular stomatitis virus, read-out: Activity",500 to 1000 nM
same,"peak serum concentration, 20 mg/kg group versus 50 mg/kg group",[7],higher peak serum concentration than the 50 mg/kg group
same,time until serum levels approach in vitro IC50 concentrations,[7]; ip,about 2 hours
same,intercalation into cellular membranes,Vero cells [8],dose-dependent increase in fluorescence
same,IC50,Reovirus,> 10000 nM
same,IC50,Adenovirus,> 10000 nM
same,infection and infectious spread of live NiV,Nipah,inhibit infection and infectious spread
same,IC50,Nipah; read-out: Activity,500 to 1000 nM
same,IC50,Influenza A,< 500 nM
same,IC50,Hepatitis C Virus,< 500 nM
same,virion membrane morphology by EM,pVSV particles,significant distortion of the viral membrane
same,inhibitory effect versus time of addition,pVSV,"apparent only when the compound was added before or during, but not after, the viral infection period"
same,IC50,PIV-5,500 to 1000 nM
same,IC50,Rift Valley Fever,< 500 nM
same,effect of compound pre-incubated with saturating liposomes on viral infection,NiV-pVSV [9],no effect on viral infection
same,"effect of excess liposomes, virus pre-exposed to compound",NiV-pVSV [9],no longer able to rescue viral infection
same,effect of liposome size on binding or reversal of inhibition,NiV-pVSV [9],no effect
same,"effect of liposomes, virus and liposomes simultaneously subjected to compound",NiV-pVSV [9],competed off virus infection
same,IC50,West Nile Virus,< 500 nM
same,toxic effects in AK and LD enzyme release assays,Vero cells [10],little to no toxic effects
same,IC50,Vaccinia,500 to 1000 nM
